{"source": "ChEMBL document CHEMBL1201862", "about": "“PubChem BioAssay data set” (2004)", "experiment_in_all_cases": "DTP human tumour cell line panel, 48 h", "key": {"SN12C": {"system": "SN12C"}, "U-251": {"system": "U-251"}, "OVCAR-4": {"system": "OVCAR-4"}, "SF-539": {"system": "SF-539"}, "SNB-19": {"system": "SNB-19"}, "SNB-75": {"system": "SNB-75"}, "HCT-15": {"system": "HCT-15"}, "HOP-62": {"system": "HOP-62"}, "CCRF-CEM": {"system": "CCRF-CEM"}, "HCT-116": {"system": "HCT-116"}, "IGROV-1": {"system": "IGROV-1"}, "NCI-H226": {"system": "NCI-H226"}, "HL-60": {"system": "HL-60"}, "NCI-H23": {"system": "NCI-H23"}, "OVCAR-5": {"system": "OVCAR-5"}, "MOLT-4": {"system": "MOLT-4"}, "RXF 393": {"system": "RXF 393"}, "SF-295": {"system": "SF-295"}, "HOP-92": {"system": "HOP-92"}, "LOX IMVI": {"system": "LOX IMVI"}}, "note": "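Cells were grown in 96-well plates and exposed to each compound for 48 hours at five concentrations; endpoints were interpolated linearly between bracketing concentrations, or set to the highest concentration if not reached. GI50 is the concentration that inhibits growth by half.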 Activity calls are given as the source filed them. Rule as the data show it: active = GI50 up to about 1.1 µM and inactive = higher."}
{"smiles": "NC(Cc1c[nH]c2ccccc12)C(=O)O", "note": "(stereo not drawn) [DL-TRYPTOPHAN]", "values": [{"measurement": "GI50", "setting": "SN12C", "value": "3.74 µM (inactive)"}, {"measurement": "GI50", "setting": "U-251", "value": "> 300 µM (inactive)"}, {"measurement": "GI50", "setting": "OVCAR-4", "value": "> 300 µM (inactive)"}, {"measurement": "GI50", "setting": "SF-539", "value": "> 300 µM (inactive)"}, {"measurement": "GI50", "setting": "SNB-19", "value": "> 300 µM (inactive)"}, {"measurement": "GI50", "setting": "SNB-75", "value": "> 300 µM (inactive)"}, {"measurement": "GI50", "setting": "HCT-15", "value": 64.6, "unit": "µM"}, {"measurement": "GI50", "setting": "HOP-62", "value": "> 300 µM (inactive)"}, {"measurement": "GI50", "setting": "CCRF-CEM", "value": "> 300 µM (inactive)"}, {"measurement": "GI50", "setting": "HCT-116", "value": "> 300 µM (inactive)"}, {"measurement": "GI50", "setting": "IGROV-1", "value": "> 300 µM (inactive)"}, {"measurement": "GI50", "setting": "NCI-H226", "value": "30 µM (inactive)"}, {"measurement": "GI50", "setting": "HL-60", "value": "> 300 µM (inactive)"}, {"measurement": "GI50", "setting": "NCI-H23", "value": "> 300 µM (inactive)"}, {"measurement": "GI50", "setting": "OVCAR-5", "value": "> 300 µM (inactive)"}, {"measurement": "GI50", "setting": "MOLT-4", "value": "> 300 µM (inactive)"}, {"measurement": "GI50", "setting": "RXF 393", "value": "> 300 µM (inactive)"}, {"measurement": "GI50", "setting": "SF-295", "value": "> 300 µM (inactive)"}, {"measurement": "GI50", "setting": "HOP-92", "value": "> 300 µM (inactive)"}, {"measurement": "GI50", "setting": "LOX IMVI", "value": "> 300 µM (inactive)"}]}
